# Results published in the supplement of paper PMC10307832.
# Tests used:
# Assay in all cases: relative viability (nuclei count vs DMSO), 5 days (fraction); higher = more cells survive
# [1] = system: COR-L23
# Outline: (§1)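 Relative viability was taken as the ratio of nuclei in treated wells to nuclei in vehicle wells. Lung cancer cell lines in 1536-well plates received compounds by pin tool one day after seeding, either one drug alone or a fixed anchor-drug dose plus five library-drug doses (not always all listed) in √10 steps. Nuclei were counted on 4× images after 5 days of treatment, and values are medians of duplicate plates.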
# [2] = system: NCI-H460
# Outline: as §1
# [3] = system: PC-14
# Outline: as §1
# [4] = system: NCI-H1563
# Outline: as §1
# [5] = system: H3255
# Outline: as §1
# [6] = system: LU99A
# Outline: as §1
# [7] = system: SW 1573
# Outline: as §1
# [8] = system: LCLC-97TM1
# Outline: as §1
# [9] = system: NCI-H1650
# Outline: as §1
# [10] = system: NCI-H1793
# Outline: as §1
# [11] = system: 201T
# Outline: as §1
# [12] = system: LC-2-ad
# Outline: as §1
# [13] = system: NCI-H2228
# Outline: as §1
# [14] = system: NCI-H596
# Outline: as §1
# [15] = system: A-427
# Outline: as §1
# [16] = system: LK-2
# Outline: as §1
# [17] = system: NCI-H727
# Outline: as §1
# [18] = system: SW 900
# Outline: as §1
# [19] = system: NCI-H2347
# Outline: as §1
# [20] = system: NCI-H23
# Outline: as §1
# [21] = system: LCLC-103H
# Outline: as §1
structure (smiles),measurement,setting,value
CC(=O)O[C@@]12CO[C@@H]1C[C@H](O)[C@@]1(C)C(=O)[C@H](O)C3=C(C)[C@@H](OC(=O)[C@H](O)[C@@H](NC(=O)OC(C)(C)C)c4ccccc4)C[C@@](O)([C@@H](OC(=O)c4ccccc4)[C@H]21)C3(C)C [Docetaxel] + COc1cc2c(Oc3ccc(NC(=O)C4(C(=O)Nc5ccc(F)cc5)CC4)cc3F)ccnc2cc1OCCCN1CCOCC1 [Foretinib] (partner 0.25 µM),relative viability,[1]; first compound 0.0002 µM,0.891
same,relative viability,[1]; first compound 0.000632 µM,0.896
same,relative viability,[1]; first compound 0.002 µM,0.561
same,relative viability,[1]; first compound 0.006325 µM,0.173
same,relative viability,[1]; first compound 0.02 µM,0.116
same,relative viability,[2]; first compound 0.0002 µM,0.952
same,relative viability,[2]; first compound 0.000632 µM,0.933
same,relative viability,[2]; first compound 0.002 µM,0.184
same,relative viability,[2]; first compound 0.006325 µM,0.0294
same,relative viability,[2]; first compound 0.02 µM,0.022
same,relative viability,[3]; first compound 0.0002 µM,0.886
same,relative viability,[3]; first compound 0.000632 µM,1.03
same,relative viability,[3]; first compound 0.002 µM,0.576
same,relative viability,[3]; first compound 0.006325 µM,0.117
same,relative viability,[3]; first compound 0.02 µM,0.0977
same,relative viability,[4]; first compound 0.0002 µM,0.988
same,relative viability,[4]; first compound 0.000632 µM,0.862
same,relative viability,[4]; first compound 0.002 µM,0.966
same,relative viability,[4]; first compound 0.006325 µM,0.922
same,relative viability,[4]; first compound 0.02 µM,0.628
same,relative viability,[5]; first compound 0.0002 µM,0.889
same,relative viability,[5]; first compound 0.000632 µM,0.909
same,relative viability,[5]; first compound 0.002 µM,0.66
same,relative viability,[5]; first compound 0.006325 µM,0.335
same,relative viability,[5]; first compound 0.02 µM,0.266
same,relative viability,[6]; first compound 0.0002 µM,0.718
same,relative viability,[6]; first compound 0.000632 µM,0.794
same,relative viability,[6]; first compound 0.002 µM,0.486
same,relative viability,[6]; first compound 0.006325 µM,0.393
same,relative viability,[6]; first compound 0.02 µM,0.259
same,relative viability,[7]; first compound 0.0002 µM,0.719
same,relative viability,[7]; first compound 0.000632 µM,1.06
same,relative viability,[7]; first compound 0.002 µM,0.342
same,relative viability,[7]; first compound 0.006325 µM,0.193
same,relative viability,[7]; first compound 0.02 µM,0.2
same,relative viability,[8]; first compound 0.0002 µM,0.846
same,relative viability,[8]; first compound 0.000632 µM,0.641
same,relative viability,[8]; first compound 0.002 µM,0.697
same,relative viability,[8]; first compound 0.006325 µM,0.218
same,relative viability,[8]; first compound 0.02 µM,0.146
same,relative viability,[9]; first compound 0.0002 µM,1.07
same,relative viability,[9]; first compound 0.000632 µM,0.598
same,relative viability,[9]; first compound 0.006325 µM,0.213
same,relative viability,[9]; first compound 0.02 µM,0.204
same,relative viability,[10]; first compound 0.0002 µM,0.592
same,relative viability,[10]; first compound 0.000632 µM,0.493
same,relative viability,[10]; first compound 0.002 µM,0.391
same,relative viability,[10]; first compound 0.006325 µM,0.204
same,relative viability,[10]; first compound 0.02 µM,0.186
same,relative viability,[11]; first compound 0.0002 µM,1.15
same,relative viability,[11]; first compound 0.000632 µM,0.712
same,relative viability,[11]; first compound 0.002 µM,0.473
same,relative viability,[11]; first compound 0.006325 µM,0.29
same,relative viability,[11]; first compound 0.02 µM,0.213
same,relative viability,[12]; first compound 0.0002 µM,0.882
same,relative viability,[12]; first compound 0.000632 µM,0.494
same,relative viability,[12]; first compound 0.002 µM,0.441
same,relative viability,[12]; first compound 0.006325 µM,0.395
same,relative viability,[13]; first compound 0.0002 µM,0.785
same,relative viability,[13]; first compound 0.000632 µM,0.222
same,relative viability,[13]; first compound 0.002 µM,0.185
same,relative viability,[13]; first compound 0.006325 µM,0.145
same,relative viability,[13]; first compound 0.02 µM,0.137
same,relative viability,[14]; first compound 0.0002 µM,0.901
same,relative viability,[14]; first compound 0.000632 µM,0.51
same,relative viability,[14]; first compound 0.002 µM,0.419
same,relative viability,[14]; first compound 0.006325 µM,0.365
same,relative viability,[14]; first compound 0.02 µM,0.217
same,relative viability,[15]; first compound 0.0002 µM,1
same,relative viability,[15]; first compound 0.000632 µM,1.04
same,relative viability,[15]; first compound 0.002 µM,0.686
same,relative viability,[15]; first compound 0.006325 µM,0.261
same,relative viability,[15]; first compound 0.02 µM,0.176
same,relative viability,[16]; first compound 0.0002 µM,1.02
same,relative viability,[16]; first compound 0.000632 µM,0.948
same,relative viability,[16]; first compound 0.002 µM,0.348
same,relative viability,[16]; first compound 0.006325 µM,0.188
same,relative viability,[16]; first compound 0.02 µM,0.14
same,relative viability,[17]; first compound 0.0002 µM,0.834
same,relative viability,[17]; first compound 0.000632 µM,0.693
same,relative viability,[17]; first compound 0.002 µM,0.788
same,relative viability,[17]; first compound 0.006325 µM,0.507
same,relative viability,[17]; first compound 0.02 µM,0.346
same,relative viability,[18]; first compound 0.0002 µM,0.816
same,relative viability,[18]; first compound 0.000632 µM,0.407
same,relative viability,[18]; first compound 0.002 µM,0.249
same,relative viability,[18]; first compound 0.006325 µM,0.247
same,relative viability,[18]; first compound 0.02 µM,0.175
same,relative viability,[19]; first compound 0.0002 µM,0.806
same,relative viability,[19]; first compound 0.000632 µM,0.815
same,relative viability,[19]; first compound 0.002 µM,0.541
same,relative viability,[19]; first compound 0.006325 µM,0.31
same,relative viability,[19]; first compound 0.02 µM,0.368
same,relative viability,[20]; first compound 0.0002 µM,0.964
same,relative viability,[20]; first compound 0.000632 µM,0.859
same,relative viability,[20]; first compound 0.002 µM,0.705
same,relative viability,[20]; first compound 0.006325 µM,0.188
same,relative viability,[20]; first compound 0.02 µM,0.147
same,relative viability,[21]; first compound 0.0002 µM,0.674
same,relative viability,[21]; first compound 0.000632 µM,0.61
same,relative viability,[21]; first compound 0.002 µM,0.485
same,relative viability,[21]; first compound 0.006325 µM,0.339
same,relative viability,[21]; first compound 0.02 µM,0.272
